Consider 27 molecules from ChEMBL document CHEMBL1921674, “Novel tricyclic inhibitors of IKK2: discovery and SAR leading to the identification of 2-methoxy-N-((6-(1-methyl-4-(methylamino)-1,6-dihydroimidazo[4,5-d]pyrrolo[2,3-b]pyridin-7-yl)pyridin-2-yl)methyl)acetamide (BMS-066)” (Bioorg Med Chem Lett, 2011).

Series [1] has as its target T1, Inhibitor of nuclear factor kappa-B kinase subunit beta (Homo sapiens, UniProt O14920).
T1 sequence (O14920 whole entry): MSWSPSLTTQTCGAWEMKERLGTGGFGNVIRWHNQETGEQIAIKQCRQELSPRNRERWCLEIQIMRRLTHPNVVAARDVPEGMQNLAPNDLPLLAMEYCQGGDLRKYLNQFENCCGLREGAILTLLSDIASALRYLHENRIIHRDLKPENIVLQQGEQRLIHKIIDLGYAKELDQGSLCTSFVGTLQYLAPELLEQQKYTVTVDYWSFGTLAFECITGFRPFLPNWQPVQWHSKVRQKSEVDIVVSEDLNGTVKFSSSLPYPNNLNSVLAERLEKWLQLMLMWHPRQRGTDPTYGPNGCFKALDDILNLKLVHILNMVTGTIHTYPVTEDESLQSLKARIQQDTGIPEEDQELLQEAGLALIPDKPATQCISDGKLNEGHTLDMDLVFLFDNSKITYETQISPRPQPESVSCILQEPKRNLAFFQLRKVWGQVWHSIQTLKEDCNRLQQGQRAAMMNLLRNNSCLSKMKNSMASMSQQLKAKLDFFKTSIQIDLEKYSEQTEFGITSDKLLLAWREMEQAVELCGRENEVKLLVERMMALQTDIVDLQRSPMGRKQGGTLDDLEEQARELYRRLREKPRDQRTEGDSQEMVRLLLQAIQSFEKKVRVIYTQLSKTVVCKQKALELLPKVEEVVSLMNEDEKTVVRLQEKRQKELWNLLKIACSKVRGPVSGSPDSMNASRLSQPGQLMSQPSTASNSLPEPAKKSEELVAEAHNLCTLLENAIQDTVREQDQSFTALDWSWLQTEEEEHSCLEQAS
As to the kind of experiment: Inhibition of human IKK2-mediated GST-IkappaBalpha protein fusion phosphorylation.

Series [2] deals with PBMC. As to the kind of experiment: Antiinflammatory activity in human PBMC assessed as inhibition of LPS-induced TNFalpha release treated for 5 mins before LPS challenge measured after 4 hrs by ELISA. Type of series: functional, cell-based. (In general: In an ELISA, binding on a coated surface is turned into a signal by an enzyme label.)
Series [3] concerns Blood. As to the kind of experiment: Antiinflammatory activity in human whole blood assessed as inhibition of LPS-induced TNFalpha release treated for 45 mins before LPS challenge measured after 6 hrs by ELISA. Type of series: functional, tissue-based.
Series [4] is described as follows: Cmax in Lewis rat at 30 mg/kg, po. Type of series: ADME, organism-based. Conditions: in vivo. Also on record: dose 30 mg/kg, route oral.
A short description of series [5]: AUC in Lewis rat at 30 mg/kg, po. In kind it is ADME, organism-based. Conditions: plasma. Further details: dose 30 mg/kg, route oral.

In general, IC50 refers to the point on the concentration scale where inhibition reaches its midpoint. As for `CNc1nc2[nH]c(-c3cccc(CNC(=O)c4cnccn4)n3)cc2c2c1ncn2C`, the IC50 in series [1] turned out to be 23 nM; in series [2] (Homo sapiens, PBMC), 290 nM; in series [3] (Homo sapiens, Blood) it was 5900 nM.

Turning to `CNc1nc2[nH]c(-c3cccc(CNC(=O)CC(C)C)n3)cc2c2c1ncn2C`, the concentration for half-maximal inhibition (IC50) is 26 nM in series [1]; 390 nM in series [2] (Homo sapiens, PBMC); 15000 nM in series [3] (Homo sapiens, Blood).

In the case of `CNc1nc2[nH]c(-c3cccc(CNC(=O)CCOC)n3)cc2c2c1ncn2C`, the IC50 is 12 nM in series [1]; 280 nM in series [2] (Homo sapiens, PBMC); 3300 nM in series [3] (Homo sapiens, Blood).

In series [1], `CNc1nc2[nH]c(-c3cccc(CNC(C)=O)c3)cc2c2c1ncn2C` had an IC50 of 14 nM.

Regarding `CNc1nc2[nH]c(-c3cccc(CN(C)C(=O)COC)n3)cc2c2c1ncn2C`, the IC50 amounted to 19 nM in series [1]; 350 nM in series [2] (Homo sapiens, PBMC); 3300 nM in series [3] (Homo sapiens, Blood).

As to `CNc1nc2[nH]c(-c3cccc(CNC(=O)C4CC4)n3)cc2c2c1ncn2C`, the IC50 in series [1] is 33 nM; in series [2] (Homo sapiens, PBMC) it was 280 nM; in series [3] (Homo sapiens, Blood), 5900 nM.

Take `CNc1nc2[nH]c(-c3cccc(CNC(=O)CCN(C)C)n3)cc2c2c1ncn2C`: the IC50 in series [1] amounted to 5 nM; in series [2] (Homo sapiens, PBMC), 220 nM; in series [3] (Homo sapiens, Blood) it was 1800 nM.

Take `CNc1nc2[nH]c(-c3cccc(CNC(=O)C4(C)CC4)n3)cc2c2c1ncn2C`: the IC50 in series [1] came out at 41 nM; in series [2] (Homo sapiens, PBMC), 570 nM.

In the case of `CNc1nc2[nH]c(-c3cccc(C4(NC(C)=O)CC4)n3)cc2c2c1ncn2C`, the IC50 stood at 81 nM in series [1]; 400 nM in series [2] (Homo sapiens, PBMC); 7000 nM in series [3] (Homo sapiens, Blood).

With `CNc1nc2[nH]c(-c3cccc(CN(C)C(C)=O)n3)cc2c2c1ncn2C`, the IC50 in series [1] was found to be 14 nM; in series [2] (Homo sapiens, PBMC), 230 nM; in series [3] (Homo sapiens, Blood), 3000 nM.

For the molecule `CNCC(=O)NCc1cccc(-c2cc3c(nc(NC)c4ncn(C)c43)[nH]2)n1`, the 50% inhibitory concentration (IC50) in series [1] came out at 86 nM; in series [2] (Homo sapiens, PBMC), 130 nM; in series [3] (Homo sapiens, Blood), 17000 nM.

One may read the Cmax as the highest concentration seen after dosing. By AUC is commonly meant the area under the concentration-time curve, a measure of exposure. A higher AUC goes with high exposure. In series [4], `CNc1nc2[nH]c(-c3cccc(CNC(=O)CCOC)c3)cc2c2c1ncn2C` had a Cmax of 7.8 µM. In addition, the AUC in series [5] came out at 39 µM·h. The IC50 in series [1] is 13 nM; in series [3] (Homo sapiens, Blood) it was 7000 nM.

With `CNc1nc2[nH]c(-c3cccc(CNC(C)=O)n3)cc2c2c1ncn2C`, the IC50 in series [1] was 19 nM; in series [2] (Homo sapiens, PBMC) it was 160 nM; in series [3] (Homo sapiens, Blood) it was 1600 nM.

With `CNc1nc2[nH]c(-c3cccc(C(C)NC(C)=O)n3)cc2c2c1ncn2C` (single isomer, unassigned; enantiomer 2), the results for the IC50 in series [1], in series [2] (pbmc) and in series [3] were 9 nM, 300 nM and 1600 nM, respectively.

Regarding `CCC(=O)NCc1cccc(-c2cc3c(nc(NC)c4ncn(C)c43)[nH]2)n1`, the IC50 in series [1] stood at 44 nM; in series [2] (Homo sapiens, PBMC) it was 700 nM; in series [3] (Homo sapiens, Blood), 6100 nM.

On to `CNc1nc2[nH]c(-c3cccc(CNC(=O)c4csnn4)n3)cc2c2c1ncn2C`, for which the IC50 in series [1] came out at 28 nM; in series [2] (Homo sapiens, PBMC), 230 nM; in series [3] (Homo sapiens, Blood) it was 5200 nM.

Turning to `CNc1nc2[nH]c(-c3cccc(CNC(=O)C(C)(C)C)n3)cc2c2c1ncn2C`, the IC50 in series [1] was found to be 66 nM; in series [2] (Homo sapiens, PBMC) it was 310 nM; in series [3] (Homo sapiens, Blood), 5500 nM.

Regarding `CNc1nc2[nH]c(-c3cccc(N4CCN(C)CC4)n3)cc2c2c1ncn2C`, the IC50 in series [1] was 128 nM; in series [2] (Homo sapiens, PBMC), 1500 nM; in series [3] (Homo sapiens, Blood), above 25000 nM.

Consider `CNc1nc2[nH]c(-c3cccc(CNC(=O)C(C)(C)O)n3)cc2c2c1ncn2C`, for which the IC50 turned out to be 12 nM in series [1]; 240 nM in series [2] (Homo sapiens, PBMC); 3400 nM in series [3] (Homo sapiens, Blood).

For the molecule `CNc1nc2[nH]c(-c3cccc(NCCOC)n3)cc2c2c1ncn2C`, the IC50 was 20 nM in series [1]; 350 nM in series [2] (Homo sapiens, PBMC); 6400 nM in series [3] (Homo sapiens, Blood).

`CNc1nc2[nH]c(-c3cccc(NC(C)=O)n3)cc2c2c1ncn2C`: the IC50 was determined as 130 nM in series [1] and 1900 nM in series [2] (Homo sapiens, PBMC).

Regarding `CCNc1nc2sc(-c3cccc([C@H](C)NC(C)=O)c3)nc2c2c1ncn2C`, the IC50 in series [3] (Homo sapiens, Blood) is 3500 nM.

Consider `CNC(=O)N(C)Cc1cccc(-c2cc3c(nc(NC)c4ncn(C)c43)[nH]2)n1`, for which the IC50 was 5.7 nM in series [1]; 350 nM in series [2] (Homo sapiens, PBMC); 1700 nM in series [3] (Homo sapiens, Blood).

For the molecule `CNc1nc2[nH]c(-c3cccc(C(C)NC(C)=O)n3)cc2c2c1ncn2C` (single isomer, unassigned), the IC50 worked out at 16 nM in series [1]; 680 nM in series [2] (pbmc); 1700 nM in series [3] (Homo sapiens, Blood).

Consider `CNc1nc2[nH]c(-c3cccc(N(C)CCOC)n3)cc2c2c1ncn2C`, for which the IC50 in series [1] was 438 nM; in series [2] (Homo sapiens, PBMC), 1900 nM; in series [3] (Homo sapiens, Blood) it was above 25000 nM.

`CNc1nc2[nH]c(-c3cccc(CNC(=O)CO)n3)cc2c2c1ncn2C`: the IC50 in series [1] was found to be 13 nM; in series [2] (Homo sapiens, PBMC), 530 nM; in series [3] (Homo sapiens, Blood), 1800 nM.

As to `CNc1nc2[nH]c(-c3cc(CNC(C)=O)ccn3)cc2c2c1ncn2C`, the IC50 in series [1] is 330 nM.
